Experimental data published in article PMC12254355 (Nature Communications, 2025).
Ends that are not written are not given here.

How the values were obtained:
human red blood cells = settings: pH 7.4
[1] = test system: E. faecium ATCC 700221 - VRE; settings: ATCC 700221, 24 h
HEK293T cells = settings: for CC50 vs HEK293T cells (source data of Figure 4a): 24 h
E. coli AIC221 = settings: AIC221, 24 h
E. coli ATCC 11775 = settings: ATCC 11775, 24 h
A. baumannii ATCC 19606 = settings: ATCC 19606, 24 h
P. aeruginosa PA14 = settings: PA14, 24 h
P. aeruginosa PAO1 = settings: PAO1, 24 h
K. pneumoniae ATCC 13883 = settings: ATCC 13883, 24 h

Sequence | HC50 (human red blood cells) | Minimal Inhibitory Concentration, E. faecium ATCC 700221 - VRE (+) [1] [µmol/L] | SIcytotoxicity (HEK293T cells) | CC50 vs HEK293T cells (source data of Figure 4a) (HEK293T cells) [µM] | Minimal Inhibitory Concentration, E. coli AIC221 (-) (E. coli AIC221) [µmol/L] | Minimal Inhibitory Concentration, E. coli ATCC 11775 (-) (E. coli ATCC 11775) [µmol/L] | Minimal Inhibitory Concentration, A. baumannii ATCC 19606 (-) (A. baumannii ATCC 19606) [µmol/L] | Minimal Inhibitory Concentration, P. aeruginosa PA14 (-) (P. aeruginosa PA14) [µmol/L] | Minimal Inhibitory Concentration, P. aeruginosa PAO1 (-) (P. aeruginosa PAO1) [µmol/L] | CC50 vs HEK293T cells (HEK293T cells) [µM] | Minimal Inhibitory Concentration, K. pneumoniae ATCC 13883 (-) (K. pneumoniae ATCC 13883) [µmol/L]
RKFKWGKLFSTAKKLYKKGKKLSK [UniprotKB-16] | 2082.0 | 32 | 5.9 | 23.72 | 4 | 8 | 32 | 4 | 4 | – | –
VNSFKIGGFIKKLWRSKLAKKLRAK [UniprotKB-19] | 625.9 | 4 | 10.2 | 40.64 | 16 | 64 | 64 | 16 | 8 | – | –
RKFKWGKLFSTAKKLYKKGKKLSKNKNFKKALK [UniprotKB-12] | 604.3 | 32 | 11.9 | 23.71 | 2 | 32 | 64 | 4 | 4 | – | –
KWGKLFSAGKKLLKKAKKL [Arachnoserver-4] | 1.085e+083 | 16 | 2.4 | 19.57 | 16 | 32 | 64 | 16 | 8 | 20 | –
RRVKRFKKFFMKLKKSVKKRVMKFFK [UniprotKB-5] | 103.8 | 8 | 1.1 | 8.885 | 32 | 32 | 64 | 8 | 8 | 9 | –
RKFKWGSFKKILSAGKKLFKKAKKLSK [Arachnoserver-2] | 108.1 | 8 | 9.9 | 9.929 | 1 | 8 | 32 | 4 | 4 | 10 | –
KLHGLLTRRSLKNFWKRNLYLR [Conoserver-6] | 66.3 | 32 | 7.9 | 31.74 | 4 | 64 | 32 | 32 | 16 | – | –
KWLKAMKSIAKFIAKKQMKKHL [Arachnoserver-32] | 19.2 | 4 | 1.9 | 7.568 | 64 | – | – | 16 | 8 | 8 | 16
KYRRGVSPWLKKELVRLHNNLRSKVAGGK [Arachnoserver-31] | 1392.0 | 16 | 3.2 | 12.67 | 4 | 8 | – | 64 | – | 13 | 4
KFSVFSKILRSIAKVFKGVGKVRK [Arachnoserver-27] | 24.2 | 8 | 2.0 | 7.976 | 8 | 32 | – | – | – | – | 4
RFGSFLKKVWKSKLAKKL [UniprotKB-20] | 18147.0 | 8 | 6.6 | 52.53 | 16 | 32 | 64 | 16 | 8 | – | –
ARKFKWGKLFSAGKKLLKKAKKLSKNK [Arachnoserver-11] | 1118.0 | 8 | 2.2 | 8.722 | 4 | 32 | 64 | 8 | 8 | 9 | –
KRFIRNLRSNLYQKIIKSTKSLLDLREKI [Arachnoserver-17] | 280.5 | – | 4.1 | 16.47 | 8 | 64 | – | – | – | – | 4
FIKKLWRSKLAKKLRAKGRELLK [UniprotKB-17] | 4.224e+042 | 16 | 3.9 | 30.97 | 16 | 16 | 32 | 16 | 8 | – | –
